Where two headings read alike, the source gives them in different places.
What was measured:
Test in all cases: ActivX kinase probe assay (human PBMC)
Assay type in all cases: binding
MLKL = MLKL (Homo sapiens (Human), UniProt Q8NB16); conditions: MLKL, read-out: percent inhibition
PITSLRE = test system: PITSLRE
RSK2 domain1 = RSK2 domain1 (Homo sapiens (Human), UniProt P51812); conditions: RSK2 domain1, read-out: percent inhibition
FYN, SRC, YES = test system: FYN, SRC, YES
PKD2 = PKD2 (Homo sapiens (Human), UniProt Q9BZL6); conditions: PKD2, read-out: percent inhibition
TAO2 = TAO2 (Homo sapiens (Human), UniProt Q9UL54); conditions: TAO2, read-out: percent inhibition
PIP4K2C = PIP4K2C (Homo sapiens (Human), UniProt Q8TBX8); conditions: read-out: percent inhibition
MST4, YSK1 = test system: MST4, YSK1
PIP5K3 = PIP5K3 (Homo sapiens (Human), UniProt Q9Y2I7); conditions: PIP5K3, read-out: percent inhibition
ZC2/TNIK = ZC2/TNIK (Homo sapiens (Human), UniProt Q9UKE5); conditions: ZC2/TNIK, read-out: percent inhibition
CDK2 = CDK2 (Homo sapiens (Human), UniProt P24941); conditions: CDK2, read-out: percent inhibition
LOK = LOK (Homo sapiens (Human), UniProt O94804); conditions: LOK, read-out: percent inhibition
FER = FER (Homo sapiens (Human), UniProt P16591); conditions: FER, read-out: percent inhibition
JAK3 domain2 = JAK3 domain2 (Homo sapiens (Human), UniProt P52333); conditions: JAK3 domain2, read-out: percent inhibition
RSK1 domain2 = RSK1 domain2 (Homo sapiens (Human), UniProt Q15418); conditions: RSK1 domain2, read-out: percent inhibition
p70S6Kb = p70S6Kb (Homo sapiens (Human), UniProt Q9UBS0); conditions: p70S6Kb, read-out: percent inhibition
PIK3CG = PIK3CG (Homo sapiens (Human), UniProt P48736); conditions: PIK3CG, read-out: percent inhibition
PI4KB = PI4KB (Homo sapiens (Human), UniProt Q9UBF8); conditions: PI4KB, read-out: percent inhibition
SLK = SLK (Homo sapiens (Human), UniProt Q9H2G2); conditions: SLK, read-out: percent inhibition
FYN = FYN (Homo sapiens (Human), UniProt P06241); conditions: FYN, read-out: percent inhibition
CDC2 = CDC2 (Homo sapiens (Human), UniProt P06493); conditions: CDC2, read-out: percent inhibition
eEF2K = eEF2K (Homo sapiens (Human), UniProt O00418); conditions: eEF2K, read-out: percent inhibition
IKKa = IKKa (Homo sapiens (Human), UniProt O15111); conditions: IKKa, read-out: percent inhibition
JNK1, JNK2, JNK3 = test system: JNK1, JNK2, JNK3
IRAK3 = IRAK3 (Homo sapiens (Human), UniProt Q9Y616); conditions: IRAK3, read-out: percent inhibition
AKT1 = AKT1 (Homo sapiens (Human), UniProt P31749); conditions: AKT1, read-out: percent inhibition
MAP2K3 = MAP2K3 (Homo sapiens (Human), UniProt P46734); conditions: MAP2K3, read-out: percent inhibition
ACK = ACK (Homo sapiens (Human), UniProt Q07912); conditions: ACK, read-out: percent inhibition
NuaK2 = NuaK2 (Homo sapiens (Human), UniProt Q9H093); conditions: NuaK2, read-out: percent inhibition
IRAK1 = IRAK1 (Homo sapiens (Human), UniProt P51617); conditions: read-out: percent inhibition
GCK = GCK (Homo sapiens (Human), UniProt Q12851); conditions: GCK, read-out: percent inhibition
Wnk1, Wnk2, Wnk3 = test system: Wnk1, Wnk2, Wnk3
LYN = LYN (Homo sapiens (Human), UniProt P07948); conditions: LYN, read-out: percent inhibition
PIK3CB = PIK3CB (Homo sapiens (Human), UniProt P42338); conditions: PIK3CB, read-out: percent inhibition
LRRK2 = LRRK2 (Homo sapiens (Human), UniProt Q5S007); conditions: read-out: percent inhibition

Chain of PIP4K2C (Q8TBX8 whole entry): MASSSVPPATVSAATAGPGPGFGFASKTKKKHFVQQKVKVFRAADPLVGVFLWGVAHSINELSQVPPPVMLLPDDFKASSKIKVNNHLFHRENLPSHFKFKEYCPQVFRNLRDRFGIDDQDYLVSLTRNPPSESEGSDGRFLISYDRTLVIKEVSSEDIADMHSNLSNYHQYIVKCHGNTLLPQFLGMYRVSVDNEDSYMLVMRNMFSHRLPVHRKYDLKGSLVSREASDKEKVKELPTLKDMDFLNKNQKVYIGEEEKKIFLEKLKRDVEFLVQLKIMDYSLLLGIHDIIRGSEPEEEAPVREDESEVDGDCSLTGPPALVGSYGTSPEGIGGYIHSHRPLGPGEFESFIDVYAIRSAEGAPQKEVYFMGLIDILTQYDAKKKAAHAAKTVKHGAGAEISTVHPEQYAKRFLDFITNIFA
Chain of SLK (Q9H2G2 whole entry): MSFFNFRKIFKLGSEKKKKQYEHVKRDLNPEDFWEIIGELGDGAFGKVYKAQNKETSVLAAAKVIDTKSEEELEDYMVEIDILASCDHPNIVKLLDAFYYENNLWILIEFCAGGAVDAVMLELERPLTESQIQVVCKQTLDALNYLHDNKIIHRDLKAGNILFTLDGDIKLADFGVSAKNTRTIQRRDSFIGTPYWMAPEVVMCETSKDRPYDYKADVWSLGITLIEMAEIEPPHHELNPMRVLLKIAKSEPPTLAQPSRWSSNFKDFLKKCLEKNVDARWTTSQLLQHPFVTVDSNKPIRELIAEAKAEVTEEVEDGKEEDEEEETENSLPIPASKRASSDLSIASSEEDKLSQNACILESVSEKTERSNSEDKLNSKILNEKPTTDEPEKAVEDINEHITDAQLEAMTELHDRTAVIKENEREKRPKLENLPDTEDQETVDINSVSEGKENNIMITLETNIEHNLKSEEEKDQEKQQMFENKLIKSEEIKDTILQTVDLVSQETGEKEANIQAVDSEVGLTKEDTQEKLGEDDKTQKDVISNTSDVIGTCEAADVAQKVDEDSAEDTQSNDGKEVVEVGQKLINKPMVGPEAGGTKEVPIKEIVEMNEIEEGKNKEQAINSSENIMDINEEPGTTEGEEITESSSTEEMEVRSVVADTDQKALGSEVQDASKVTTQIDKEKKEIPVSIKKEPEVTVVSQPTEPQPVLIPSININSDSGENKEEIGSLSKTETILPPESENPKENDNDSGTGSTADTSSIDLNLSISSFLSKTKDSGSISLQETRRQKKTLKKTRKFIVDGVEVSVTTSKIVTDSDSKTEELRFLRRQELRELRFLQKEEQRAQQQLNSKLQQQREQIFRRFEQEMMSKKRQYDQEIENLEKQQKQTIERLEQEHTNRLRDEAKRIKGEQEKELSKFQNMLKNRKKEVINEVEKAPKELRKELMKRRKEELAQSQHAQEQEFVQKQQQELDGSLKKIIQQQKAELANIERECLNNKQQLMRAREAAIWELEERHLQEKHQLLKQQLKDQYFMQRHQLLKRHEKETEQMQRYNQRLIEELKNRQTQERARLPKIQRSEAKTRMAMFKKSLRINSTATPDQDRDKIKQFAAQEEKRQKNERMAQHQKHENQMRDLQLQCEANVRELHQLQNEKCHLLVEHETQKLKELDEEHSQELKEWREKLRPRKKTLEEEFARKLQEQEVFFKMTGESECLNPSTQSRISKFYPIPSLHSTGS
Chain of PKD2 (Q9BZL6 whole entry): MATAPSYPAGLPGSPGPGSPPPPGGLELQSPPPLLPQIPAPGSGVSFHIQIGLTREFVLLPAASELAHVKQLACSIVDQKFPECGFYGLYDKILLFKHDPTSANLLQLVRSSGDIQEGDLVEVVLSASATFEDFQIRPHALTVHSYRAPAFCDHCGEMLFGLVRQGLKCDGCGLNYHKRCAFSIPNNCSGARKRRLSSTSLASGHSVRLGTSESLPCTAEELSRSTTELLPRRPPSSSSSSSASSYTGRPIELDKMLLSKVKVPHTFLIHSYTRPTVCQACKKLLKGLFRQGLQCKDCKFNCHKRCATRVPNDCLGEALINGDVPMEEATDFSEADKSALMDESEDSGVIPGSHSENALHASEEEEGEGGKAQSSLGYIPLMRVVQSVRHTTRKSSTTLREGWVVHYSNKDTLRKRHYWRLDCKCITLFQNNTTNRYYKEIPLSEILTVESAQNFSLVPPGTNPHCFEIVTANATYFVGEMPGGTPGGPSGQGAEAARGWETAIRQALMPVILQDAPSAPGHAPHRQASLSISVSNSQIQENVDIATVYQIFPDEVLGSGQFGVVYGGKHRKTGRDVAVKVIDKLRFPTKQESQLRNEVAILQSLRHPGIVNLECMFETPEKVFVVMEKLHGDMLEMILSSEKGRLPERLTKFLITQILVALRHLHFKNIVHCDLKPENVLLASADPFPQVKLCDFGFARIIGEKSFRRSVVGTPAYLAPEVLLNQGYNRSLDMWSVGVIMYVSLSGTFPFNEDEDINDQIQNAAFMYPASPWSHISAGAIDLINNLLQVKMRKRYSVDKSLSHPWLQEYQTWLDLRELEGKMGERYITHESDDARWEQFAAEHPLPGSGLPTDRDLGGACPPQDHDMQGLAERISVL
Chain of ZC2/TNIK (Q9UKE5 whole entry): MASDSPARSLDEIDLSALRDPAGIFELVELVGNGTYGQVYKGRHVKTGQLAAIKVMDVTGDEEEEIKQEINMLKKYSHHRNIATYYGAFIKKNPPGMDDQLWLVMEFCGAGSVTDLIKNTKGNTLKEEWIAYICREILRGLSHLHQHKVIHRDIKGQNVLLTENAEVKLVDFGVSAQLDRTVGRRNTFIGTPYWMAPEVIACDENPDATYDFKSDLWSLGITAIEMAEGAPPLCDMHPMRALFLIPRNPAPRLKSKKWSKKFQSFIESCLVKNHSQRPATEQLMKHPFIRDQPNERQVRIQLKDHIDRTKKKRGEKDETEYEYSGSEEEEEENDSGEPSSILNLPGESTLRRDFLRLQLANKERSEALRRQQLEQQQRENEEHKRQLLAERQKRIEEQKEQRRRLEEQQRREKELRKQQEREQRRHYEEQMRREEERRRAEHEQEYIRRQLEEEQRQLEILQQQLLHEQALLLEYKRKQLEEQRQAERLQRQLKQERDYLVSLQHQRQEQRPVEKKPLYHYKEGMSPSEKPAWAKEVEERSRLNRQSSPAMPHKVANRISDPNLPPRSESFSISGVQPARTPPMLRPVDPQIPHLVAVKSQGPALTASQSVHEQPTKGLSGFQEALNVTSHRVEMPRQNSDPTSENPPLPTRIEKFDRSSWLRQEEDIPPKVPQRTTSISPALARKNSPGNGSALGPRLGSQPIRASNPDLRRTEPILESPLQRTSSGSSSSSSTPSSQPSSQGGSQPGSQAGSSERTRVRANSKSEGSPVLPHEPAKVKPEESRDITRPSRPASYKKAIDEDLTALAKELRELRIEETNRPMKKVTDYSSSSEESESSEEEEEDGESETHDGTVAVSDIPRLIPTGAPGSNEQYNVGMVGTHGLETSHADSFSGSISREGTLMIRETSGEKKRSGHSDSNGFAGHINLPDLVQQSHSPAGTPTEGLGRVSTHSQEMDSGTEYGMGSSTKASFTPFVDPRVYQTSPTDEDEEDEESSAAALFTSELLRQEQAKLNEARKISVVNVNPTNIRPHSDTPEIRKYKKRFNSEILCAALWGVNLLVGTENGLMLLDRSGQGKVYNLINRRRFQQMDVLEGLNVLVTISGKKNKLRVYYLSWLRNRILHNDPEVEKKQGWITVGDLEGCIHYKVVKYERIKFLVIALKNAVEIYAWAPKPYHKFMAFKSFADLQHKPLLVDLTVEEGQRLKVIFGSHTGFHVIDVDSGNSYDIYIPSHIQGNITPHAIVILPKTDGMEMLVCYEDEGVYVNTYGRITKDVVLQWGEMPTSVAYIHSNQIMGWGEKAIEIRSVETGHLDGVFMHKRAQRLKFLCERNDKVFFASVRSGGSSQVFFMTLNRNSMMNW
Chain of p70S6Kb (Q9UBS0 whole entry): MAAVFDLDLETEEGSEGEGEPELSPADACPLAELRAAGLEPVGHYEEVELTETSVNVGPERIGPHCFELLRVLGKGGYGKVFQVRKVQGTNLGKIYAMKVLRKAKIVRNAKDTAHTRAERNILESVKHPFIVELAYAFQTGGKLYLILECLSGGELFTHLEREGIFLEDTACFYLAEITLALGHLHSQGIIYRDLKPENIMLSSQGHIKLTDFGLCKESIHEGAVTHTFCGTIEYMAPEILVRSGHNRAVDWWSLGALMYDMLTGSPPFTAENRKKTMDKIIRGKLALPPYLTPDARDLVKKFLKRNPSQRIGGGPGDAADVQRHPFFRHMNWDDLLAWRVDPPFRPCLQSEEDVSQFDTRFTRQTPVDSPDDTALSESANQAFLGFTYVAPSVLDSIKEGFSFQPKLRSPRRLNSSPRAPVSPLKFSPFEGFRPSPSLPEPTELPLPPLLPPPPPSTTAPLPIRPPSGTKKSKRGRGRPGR
Chain of AKT1 (P31749 whole entry): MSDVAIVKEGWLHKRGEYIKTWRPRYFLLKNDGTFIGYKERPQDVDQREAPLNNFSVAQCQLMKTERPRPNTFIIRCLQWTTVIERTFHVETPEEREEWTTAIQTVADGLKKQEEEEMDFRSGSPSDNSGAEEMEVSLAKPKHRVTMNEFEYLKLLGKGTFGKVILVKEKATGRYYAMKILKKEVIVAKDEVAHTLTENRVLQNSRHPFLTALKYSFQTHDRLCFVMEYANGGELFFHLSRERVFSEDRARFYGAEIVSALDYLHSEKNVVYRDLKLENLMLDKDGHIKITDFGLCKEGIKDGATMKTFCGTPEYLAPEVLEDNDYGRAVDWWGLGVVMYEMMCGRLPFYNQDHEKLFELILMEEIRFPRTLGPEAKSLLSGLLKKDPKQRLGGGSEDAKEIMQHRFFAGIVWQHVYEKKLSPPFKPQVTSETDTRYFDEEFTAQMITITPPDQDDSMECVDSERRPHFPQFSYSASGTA

Compound: Cn1cc(-c2c[nH]c3ncnc(N4CCOCC4)c23)cn1 [Example 1, 5-(1-Methyl-1H-pyrazol-4-yl)-4-(morpholin-4-yl)-7H-pyrrolo[2,3-d]pyrimidine]
- inhibition at 0.1 µM (MLKL; 0.1 μM): 1.6%
- inhibition at 1 µM (MLKL; 1 μM): 8.4%
- percent inhibition (PITSLRE; 0.1 μM): −13%
- percent inhibition (PITSLRE; 1 μM): −3.2%
- inhibition at 0.1 µM (RSK2 domain1; 0.1 μM): -6.8%
- inhibition at 1 µM (RSK2 domain1; 1 μM): 5.6%
- percent inhibition (FYN, SRC, YES; 0.1 μM): −24.1%
- percent inhibition (FYN, SRC, YES; 1 μM): −56.3%
- inhibition at 0.1 µM (PKD2; 0.1 μM): 2.7%
- inhibition at 1 µM (PKD2; 1 μM): 20.1%
- inhibition at 0.1 µM (TAO2; 0.1 μM): -6.3%
- inhibition at 1 µM (TAO2; 1 μM): -24.2%
- inhibition at 0.1 µM (PIP4K2C; PIP4K2C (first line of two)): 1.4%
- inhibition at 1 µM (PIP4K2C; PIP4K2C (first line of two)): -1.4%
- inhibition at 0.1 µM (PIP4K2C; PIP4K2C (second line of two)): -48%
- inhibition at 1 µM (PIP4K2C; PIP4K2C (second line of two)): 0.9%
- percent inhibition (MST4, YSK1; 0.1 μM): −11.4%
- percent inhibition (MST4, YSK1; 1 μM): 15.1%
- inhibition at 0.1 µM (PIP5K3; 0.1 μM): 1.9%
- inhibition at 1 µM (PIP5K3; 1 μM): 15%
- inhibition at 0.1 µM (ZC2/TNIK; 0.1 μM): -10.6%
- inhibition at 1 µM (ZC2/TNIK; 1 μM): 31.2%
- inhibition at 0.1 µM (CDK2; 0.1 μM): -12.1%
- inhibition at 1 µM (CDK2; 1 μM): 9.5%
- inhibition at 0.1 µM (LOK; 0.1 μM): 5.7%
- inhibition at 1 µM (LOK; 1 μM): 22.6%
- inhibition at 0.1 µM (FER; 0.1 μM): -7.3%
- inhibition at 1 µM (FER; 1 μM): -17.9%
- inhibition at 0.1 µM (JAK3 domain2; 0.1 μM): 2.7%
- inhibition at 1 µM (JAK3 domain2; 1 μM): -5.2%
- inhibition at 0.1 µM (RSK1 domain2; 0.1 μM): -12.7%
- inhibition at 1 µM (RSK1 domain2; 1 μM): 18.1%
- inhibition at 0.1 µM (p70S6Kb; 0.1 μM): 15%
- inhibition at 1 µM (p70S6Kb; 1 μM): 10.1%
- inhibition at 0.1 µM (PIK3CG; 0.1 μM): -18.6%
- inhibition at 1 µM (PIK3CG; 1 μM): -62.9%
- inhibition at 0.1 µM (PI4KB; 0.1 μM): 34%
- inhibition at 1 µM (PI4KB; 1 μM): 16.1%
- inhibition at 0.1 µM (SLK; 0.1 μM): 22.9%
- inhibition at 1 µM (SLK; 1 μM): 50.6%
- inhibition at 0.1 µM (FYN; 0.1 μM): 6.7%
- inhibition at 1 µM (FYN; 1 μM): -10.1%
- inhibition at 0.1 µM (CDC2; 0.1 μM): -4%
- inhibition at 1 µM (CDC2; 1 μM): 14.7%
- inhibition at 0.1 µM (eEF2K; 0.1 μM): -9.6%
- inhibition at 1 µM (eEF2K; 1 μM): -6.5%
- inhibition at 0.1 µM (IKKa; 0.1 μM): -20%
- inhibition at 1 µM (IKKa; 1 μM): -40.5%
- percent inhibition (JNK1, JNK2, JNK3; 0.1 μM): 7.1%
- percent inhibition (JNK1, JNK2, JNK3; 1 μM): 7.7%
- inhibition at 0.1 µM (IRAK3; 0.1 μM): 30.1%
- inhibition at 1 µM (IRAK3; 1 μM): 68.7%
- inhibition at 0.1 µM (AKT1; 0.1 μM): 11.3%
- inhibition at 1 µM (AKT1; 1 μM): 18.8%
- inhibition at 0.1 µM (MAP2K3; 0.1 μM): 14.4%
- inhibition at 1 µM (MAP2K3; 1 μM): -9%
- inhibition at 0.1 µM (ACK; 0.1 μM): 5.2%
- inhibition at 1 µM (ACK; 1 μM): -8%
- inhibition at 0.1 µM (NuaK2; 0.1 μM): 3.6%
- inhibition at 1 µM (NuaK2; 1 μM): 8.9%
- inhibition at 1 µM (IRAK1; IRAK1, 1 μM): -9.1%
- inhibition at 0.1 µM (IRAK1): -13.8%
- inhibition at 0.1 µM (GCK; 0.1 μM): 4.4%
- inhibition at 1 µM (GCK; 1 μM): -6.7%
- percent inhibition (Wnk1, Wnk2, Wnk3; 0.1 μM): −18.8%
- percent inhibition (Wnk1, Wnk2, Wnk3; 1 μM): −24%
- inhibition at 0.1 µM (LYN; 0.1 μM): 3.8%
- inhibition at 1 µM (LYN; 1 μM): 7.8%
- inhibition at 0.1 µM (PIK3CB; 0.1 μM): -2.6%
- inhibition at 1 µM (PIK3CB; 1 μM): -29.8%
- inhibition at 0.1 µM (LRRK2; 0.1 μM): 69%
- inhibition at 1 µM (LRRK2; 1 μM): 88.1%

Reference: patent publication US9156845B2, “4-(substituted amino)-7H-pyrrolo[2,3-d] pyrimidines as LRRK2 inhibitors” (Pfizer Inc., priority 2012, dated 2015)
